The supplement of paper PMC10307832

Key:
Experiment in all cases: relative viability (nuclei count vs DMSO), 5 days (fraction); higher = more cells survive
RU-SKI 43 + OSI-027 = compound: CC[C@@H](C)CNCC(=O)N1CCC2=C([C@@H]1COC3=CC=CC(=C3)C)C=CS2 [RU-SKI 43] + COc1cccc2cc(-c3nc([C@H]4CC[C@H](C(=O)O)CC4)n4ncnc(N)c34)[nH]c12 [OSI-027] (partner 0.5 µM)
Procedure, shortened: (§1)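 Lung cancer cell lines were seeded in 1536-well plates and dosed by pin tool the next day, with either a single drug or a fixed anchor-drug dose combined with five library-drug doses (not always all listed) spaced in √10 steps. Five days later, one step fixed the cells and stained their nuclei (final 0.05% Triton X-100, 1% formaldehyde, 1 ug/ml Hoechst), and nuclei were counted on 4× images. Relative viability is the nuclei count in treated wells divided by the count in vehicle wells, and each value is the median of duplicate plates.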

MK-8033 + OSI-027 = compound: Cn1cc(-c2cnc3ccc4ccc(CS(=O)(=O)NCc5ccccn5)cc4c(=O)c3c2)cn1 [MK-8033] + COc1cccc2cc(-c3nc([C@H]4CC[C@H](C(=O)O)CC4)n4ncnc(N)c34)[nH]c12 [OSI-027] (partner 0.5 µM)
Procedure, shortened: as §1

MK-8033 + Phenformin = compound: Cn1cc(-c2cnc3ccc4ccc(CS(=O)(=O)NCc5ccccn5)cc4c(=O)c3c2)cn1 [MK-8033] + N=C(N)NC(=N)NCCc1ccccc1 [Phenformin] (partner 250 µM)
Procedure, shortened: as §1

Irinotecan + AZD7762 = compound: CCc1c2c(nc3ccc(OC(=O)N4CCC(N5CCCCC5)CC4)cc13)-c1cc3c(c(=O)n1C2)COC(=O)[C@]3(O)CC [Irinotecan] + NC(=O)Nc1cc(-c2cccc(F)c2)sc1C(=O)N[C@H]1CCCNC1 [AZD7762] (partner 0.2 µM)
Procedure, shortened: as §1

Cell Line | relative viability (RU-SKI 43 + OSI-027; first compound 0.1 µM) | relative viability (RU-SKI 43 + OSI-027; first compound 0.3162 µM) | relative viability (RU-SKI 43 + OSI-027; first compound 1 µM) | relative viability (RU-SKI 43 + OSI-027; first compound 3.162 µM) | relative viability (RU-SKI 43 + OSI-027; first compound 10 µM) | relative viability (MK-8033 + OSI-027; first compound 0.02 µM) | relative viability (MK-8033 + OSI-027; first compound 0.06325 µM) | relative viability (MK-8033 + OSI-027; first compound 0.2 µM) | relative viability (MK-8033 + OSI-027; first compound 0.6325 µM) | relative viability (MK-8033 + OSI-027; first compound 2 µM) | relative viability (MK-8033 + Phenformin; first compound 0.02 µM) | relative viability (MK-8033 + Phenformin; first compound 0.06325 µM) | relative viability (MK-8033 + Phenformin; first compound 0.2 µM) | relative viability (MK-8033 + Phenformin; first compound 0.6325 µM) | relative viability (MK-8033 + Phenformin; first compound 2 µM) | relative viability (Irinotecan + AZD7762; first compound 0.6325 µM) | relative viability (Irinotecan + AZD7762; first compound 2 µM) | relative viability (Irinotecan + AZD7762; first compound 6.325 µM) | relative viability (Irinotecan + AZD7762; first compound 20 µM)
NCI-H1623 | 0.435 | 0.421 | 0.428 | 0.443 | 0.448 | 0.411 | 0.409 | 0.495 | 0.442 | 0.477 | 0.578 | 0.538 | 0.618 | 0.507 | 0.619 |  |  |  | 
NCI-H647 | 0.647 | 0.864 | 0.755 | 0.918 | 0.707 | 0.69 | 0.723 | 0.534 | 0.46 | 0.582 | 0.508 | 0.448 | 0.509 | 0.546 | 0.549 | 0.294 | 0.273 | 0.131 | 0.2
NCI-H520 | 0.301 | 0.303 | 0.287 | 0.251 | 0.349 | 0.256 | 0.287 | 0.302 | 0.25 | 0.222 | 0.766 | 0.424 | 0.503 | 0.639 | 0.542 |  |  |  | 
LC-2-ad | 0.733 | 0.821 | 1.04 | 0.979 | 0.789 | 0.806 | 0.91 |  | 0.884 | 0.789 | 0.605 | 0.515 |  | 0.592 | 0.589 | 0.446 | 0.567 | 0.272 | 0.17
EKVX | 0.412 | 0.67 | 0.725 | 0.813 | 0.466 | 0.731 | 0.665 | 0.637 | 0.642 | 0.723 | 0.222 | 0.211 | 0.238 | 0.22 | 0.254 |  | 0.632 | 0.426 | 0.246
NCI-H2228 | 0.651 | 0.722 | 0.483 | 0.689 | 0.471 | 0.692 | 0.562 | 0.576 | 0.559 | 0.552 | 0.399 | 0.287 | 0.345 | 0.294 | 0.299 |  |  |  | 
NCI-H596 | 0.823 | 0.729 | 0.871 | 0.764 | 0.607 | 0.798 | 0.612 | 0.607 | 0.706 | 0.599 | 0.854 | 0.662 | 0.741 | 0.657 | 0.627 | 1.07 | 1.15 | 0.88 | 0.913
NCI-H322M | 0.548 | 0.511 | 0.581 | 0.576 | 0.575 | 0.568 | 0.442 | 0.598 | 0.604 | 0.524 | 0.779 | 0.662 | 0.698 | 0.936 | 0.749 | 0.537 | 0.553 | 0.448 | 0.28
NCI-H358 | 0.597 | 0.642 | 0.975 | 0.865 | 0.564 | 0.799 | 0.64 | 0.613 | 0.812 | 0.58 | 0.369 | 0.296 | 0.296 | 0.307 | 0.318 | 0.38 | 0.508 | 0.339 | 0.349
NCI-H1648 |  |  | 0.255 | 0.251 | 0.221 |  | 0.261 | 0.261 |  | 0.25 |  |  |  |  |  | 0.562 | 0.768 | 0.434 | 0.466
NCI-H1395 | 0.717 | 0.684 | 0.747 | 0.558 | 0.6 | 0.557 | 0.555 | 0.601 | 0.644 | 0.615 | 0.448 | 0.412 | 0.43 | 0.45 | 0.416 |  | 0.441 | 0.424 | 0.233
NCI-H1993 | 0.53 | 0.527 | 0.596 | 0.59 | 0.575 | 0.519 | 0.583 | 0.561 | 0.598 | 0.527 | 0.591 | 0.469 | 0.497 | 0.537 | 0.488 |  | 0.681 | 0.508 | 0.603
COR-L23 | 0.718 | 0.99 | 0.865 | 0.881 | 0.614 | 0.814 | 0.743 | 0.701 | 0.749 | 0.736 | 0.41 | 0.422 | 0.402 | 0.432 | 0.421 |  |  |  | 
COR-L 105 | 0.672 | 0.817 | 0.708 | 0.677 | 0.665 | 0.687 | 0.429 | 0.635 | 0.638 | 0.671 | 0.523 | 0.395 | 0.463 | 0.499 | 0.476 |  |  |  | 
NCI-H2009 | 0.69 | 0.599 | 0.698 | 0.699 | 0.601 | 0.628 | 0.612 | 0.597 | 0.617 | 0.626 | 0.524 | 0.476 | 0.456 | 0.482 | 0.463 |  |  |  | 
NCI-H1703 |  |  |  |  |  |  |  |  |  |  |  |  |  |  |  |  | 0.124 | 0.128 | 0.181
NCI-H2023 | 0.442 | 0.455 | 0.465 | 0.413 | 0.372 | 0.432 | 0.288 | 0.335 | 0.319 | 0.223 | 0.41 | 0.348 | 0.348 | 0.356 | 0.306 |  |  |  | 
SK-LU-1 | 0.324 | 0.375 | 0.342 | 0.361 | 0.317 | 0.347 | 0.352 | 0.315 | 0.4 | 0.371 | 0.519 | 0.505 | 0.518 | 0.497 | 0.53 |  |  |  | 
SW 1573 | 0.634 | 0.797 | 0.682 | 0.741 | 0.611 | 0.818 | 0.529 | 0.544 | 0.603 | 0.513 | 0.374 | 0.311 | 0.367 | 0.326 | 0.249 |  |  |  | 
NCI-H661 | 0.721 | 0.808 | 0.724 | 0.694 | 0.68 | 0.727 | 0.656 | 0.687 | 0.699 | 0.668 | 0.26 | 0.254 | 0.27 | 0.267 | 0.292 |  |  |  | 
